What was measured:
Type in all cases: cell-based, human
[1] = test system: HT29 cells; test: Annexin V early apoptosis flow cytometry, HT29; conditions: HT29, low concentrations, 24 hours
Experimental: HepG2, HT29, or MCF7 cells (1.5×10^4) were cultured in a 96-well plate for 1 day, after which DOX-TTPNs, DOX-FTNs, free DOX, empty TTPNs, or buffer was added to each well. After 24 hours, cell viability was measured using a CCK-8 assay (Dojindo Molecular Technologies) according to the manufacturer's instructions. For analysis of early apoptosis, HT29 cells in 6-18 well culture plate were treated with DOX-TTPNs, free DOX, empty TTPNs, or buffer for 24 hours. Thereafter, cells were incubated with Alexa Fluor 488-conjugated annexin V (Invitrogen) 20 for 15 minutes, then analyzed using an Accuri™ C6 flow cytometer (BD Biosciences) and FlowJo 21 v10 software.

[2] = test system: TRAIL receptors on the surface of HepG2 cells; test: Cell binding by flow cytometry
Experimental: TRAIL receptor expression was evaluated on various cell surfaces. Specifically, HepG2, HT29, and HEK293T cells (2×10^5) were cultured with four types of anti-human TRAIL receptor antibodies (R&D system, MAB347, MAB6311, MAB6301, MAB633). […] Nanocage bound cells were detected with an Accuri™ C6 flow cytometer (BD Biosciences) and analyzed using FlowJo_V10 software (FlowJo). The binding specificity of TTPN to TRAIL receptor was analyzed by blocking experiments by pre-culture of anti-human TRAIL receptor antibodies and cells at 4° C. for 20 minutes. […] Thereafter, the cells were fixed with 4% paraformaldehyde and stained with Hoechst 33258 before analysis for cell binding detection in a fluorescence microscope (Nikon Eclipse Ti, Nikon). Data were analyzed using LAS AF Lite software (Leica).

[3] = test system: XIAP; test: Western blot of HT29 lysates: XIAP; conditions: HT29, 24 hours
Experimental: After incubating HT29 cells with 50 nM DOX-TTPNs, DOX-FTNs, free DOX, or buffer for 24 hours, cells were lysed with radioimmunoprecipitation assay (RIPA) buffer (Cell Signaling Technology) and the concentration of proteins was measured using a DC protein assay kit (Bio-Rad). Equal amounts of proteins (30 μg) were resolved by SDS-PAGE and transferred to nitrocellulose membranes. After blocking with 5% skim milk in Tris-buffered saline containing 0.1% Tween-20 (TBST), membranes were incubated first with anti-Cl-PARP, anti-Cl-caspase-6, anti-cFLIP, anti-Bcl-xL, anti-XIAP, anti-Cl-caspase-3, or anti-GAPDH primary antibody (Cell Signaling Technology), and then with anti-mouse or anti-rabbit secondary antibodies (Sigma-Aldrich), as appropriate. Immunoreactive proteins were visualized using enhanced chemiluminescence (ECL) chemical reagents (Bio-Rad) and ChemiDoc (Bio-Rad), and were analyzed using ImageJ software.

## TTPN: protein nanocage presenting TRAIL as natural-like homo-trimers; TRAIL 95-281 fused by linker peptide to human ferritin heavy chain
[1]
  induction of early apoptosis: ineffective in inducing apoptosis
[2]; 400 nM, 4° C., 20 minutes
  binding on the surface of HepG2 cells: greater effect than wtFTN
[2]; HepG2, 400 nM
  binding after pre-incubation with four anti-TRAIL receptor antibodies: reduced
[3]
  decrease in XIAP levels compared with buffer treatment: no significant effect
